Several values for one entry are separate records, joined by “and”; a condition that tells them apart may be missing. Identical values can stand only once. A value given as a limit tells only on which side of the number the result lay.

Data on 49 compounds can be found in ChEMBL document CHEMBL5604063, “ASAP - DENV-2 NS2B-NS3 protease fluorescence dose response” (2024).

For assay [1], the target named is T1, Genome polyprotein (dengue virus type 2, UniProt P29990). The format is functional, Thailand/16681/1984.
Assay [2] addresses T1, Genome polyprotein. The format is functional, Thailand/16681/1984. The source holds these as a separate data set.

T1 sequence (P29990 1346-1475 limits assumed): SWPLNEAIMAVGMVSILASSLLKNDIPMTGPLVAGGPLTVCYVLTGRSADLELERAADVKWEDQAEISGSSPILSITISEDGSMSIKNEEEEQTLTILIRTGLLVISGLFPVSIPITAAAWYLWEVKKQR
T1 sequence (P29990 1476-2093 limits assumed): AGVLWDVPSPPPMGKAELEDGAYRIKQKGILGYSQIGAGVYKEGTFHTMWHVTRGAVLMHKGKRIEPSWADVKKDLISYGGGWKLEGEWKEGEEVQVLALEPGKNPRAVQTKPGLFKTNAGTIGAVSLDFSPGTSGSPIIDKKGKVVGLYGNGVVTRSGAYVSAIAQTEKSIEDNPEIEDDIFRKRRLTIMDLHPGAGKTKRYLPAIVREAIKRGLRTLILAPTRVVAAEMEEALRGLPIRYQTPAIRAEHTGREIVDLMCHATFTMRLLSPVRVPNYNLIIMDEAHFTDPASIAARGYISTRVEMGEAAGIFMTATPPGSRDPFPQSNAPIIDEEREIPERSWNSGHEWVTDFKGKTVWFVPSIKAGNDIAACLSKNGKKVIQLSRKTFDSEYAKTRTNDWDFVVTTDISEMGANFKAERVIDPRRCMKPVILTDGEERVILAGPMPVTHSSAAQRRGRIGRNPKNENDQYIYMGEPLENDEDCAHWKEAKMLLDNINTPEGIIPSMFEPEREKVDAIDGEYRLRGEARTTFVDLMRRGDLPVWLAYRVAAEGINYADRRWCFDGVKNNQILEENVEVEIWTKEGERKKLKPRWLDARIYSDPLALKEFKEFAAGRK

Regarding `O=C(Nc1ccc2c(c1)CNC2)c1cc(=O)[nH]c2c(F)cccc12`, the IC50 (usually the concentration that inhibits the measured activity by half) in assay [1] was greater than 100 µM; in assay [2], greater than 99.5 µM.

Take `Cc1c(C(=O)Nc2cccc(C3CCNCC3)c2)cc(C2CC2)n1C`: the values for the IC50 in assay [1] and in assay [2] were greater than 100 µM and greater than 99.5 µM, respectively.

`CN1C(=O)Cc2cc(C(=O)Nc3ccc4c(c3)CNC4)ccc21`: the IC50 in assay [1] is greater than 100 µM; in assay [2] it was greater than 99.5 µM.

As to `Cc1ccc(NS(=O)(=O)c2ccc(Oc3ccccc3Cl)cc2)cc1CN`, the IC50 was greater than 100 µM in assay [1] and greater than 99.5 µM in assay [2].

For `CCNC(=O)c1ccc2c(c1)nc(N1CC[C@H](CO)C1)c(=O)n2CC`, the IC50 was greater than 100 µM in assay [1] and greater than 99.5 µM in assay [2].

Take `CN(C)[C@@H]1CCC[C@H](C(=O)Nc2cccc(CN)c2)C1`: the IC50 was greater than 100 µM in assay [1] and greater than 99.5 µM in assay [2].

As to `Cc1ccc(C(C)C)c(C(=O)Nc2ccc3c(c2)CNC3)c1`, the IC50 is greater than 100 µM in assay [1] and greater than 99.5 µM in assay [2].

Regarding `Oc1cc(N2CCN(Cc3c[nH]c4ccccc34)CC2)ccn1`, the IC50 in assay [1] was greater than 100 µM; in assay [2], greater than 99.5 µM.

On to `NCc1cccc(NC(=O)[C@H](NC(=O)OCc2ccccc2)c2ccc(OCC3CCC3)cc2)c1`, for which the IC50 is greater than 100 µM in assay [1] and 48.8 µM in assay [2].

With `COc1nn(C)cc1-c1nc2c(C(=O)Nc3ccc4c(c3)CNC4)cc(Cl)cc2[nH]1`, the IC50 in assay [1] is greater than 100 µM; in assay [2], greater than 99.5 µM.

`Clc1cc(CNc2ccc3c(c2)[C@@H]2CC[C@H]3N2)c2cn[nH]c2c1`: the IC50 in assay [1] was greater than 100 µM; in assay [2], greater than 99.5 µM.

Turning to `NCc1cccc(NC(=O)c2ccc(F)c(NC(=O)OCc3ccccc3)c2F)c1`, the IC50 in assay [1] is greater than 100 µM; in assay [2], greater than 99.5 µM.

In the case of `NCc1ccc(NC(=O)[C@H]2[C@H]3CCCCC[C@H]3[C@H]2NC(=O)OCc2ccccc2)cc1`, the IC50 in assay [1] is greater than 100 µM; in assay [2] it was 57.4 µM.

As for `CC(C)Cn1cc2c(C(=O)Nc3ccc4c(c3)CNC4)cc(Cl)cc2n1`, the IC50 in assay [1] was greater than 100 µM; in assay [2] it was greater than 99.5 µM.

Consider `NCc1cc(Cl)cc(C(=O)Nc2cc([C@H]3CCOC3)ccn2)c1`, for which the IC50 in assay [1] is greater than 100 µM; in assay [2] it was greater than 99.5 µM.

For `Cc1c(C(=O)Nc2cc(C(=O)N3C[C@@H]4[C@H](O)[C@@H]4C3)ccn2)cc(C2CC2)n1C`, the IC50 was greater than 100 µM in assay [1] and greater than 99.5 µM in assay [2].

For the compound `C[C@H](C1CC1)n1ncc2c(C(=O)Nc3ccc4c(c3)CNC4)cc(C3CC3)nc21`, the figures for the IC50 in assay [1] and in assay [2] were greater than 100 µM and greater than 99.5 µM, respectively.

As to `CN(C)Cc1csc(NC(=O)c2cc(Cl)cc(NC(=O)OCc3ccccc3)c2)n1`, the IC50 in assay [1] was greater than 100 µM; in assay [2] it was greater than 99.5 µM.

For `Cn1ccnc1COc1cccc([C@H](NC(=O)OCc2ccccc2)C(=O)Nc2cccc(CN)c2)c1`, the results for the IC50 in assay [1] and in assay [2] were greater than 100 µM and greater than 99.5 µM, respectively.

On to `Cn1ncc(C(=O)Nc2cc(-c3cccnc3)ccn2)c1C1CC1`, for which the IC50 in assay [1] is greater than 100 µM; in assay [2], greater than 99.5 µM.

Turning to `CNC(=O)[C@H](Nc1cccc(N)n1)c1cc(Cl)cc(CN)c1`, the IC50 in assay [1] is greater than 100 µM; in assay [2], greater than 99.5 µM.

Regarding `N#Cc1csc(CN2CCC([C@H](NC(=O)OCc3ccccc3)C(=O)Nc3cccc(CN)c3)CC2)c1`, the IC50 in assay [1] was greater than 100 µM; in assay [2] it was greater than 99.5 µM.

With `Cc1c(C(=O)Nc2cc(C(=O)N[C@H]3CCNC3=O)ccn2)cc(C2CC2)n1C`, the IC50 is greater than 100 µM in assay [1] and greater than 99.5 µM in assay [2].

Consider `COCCCNC(=O)[C@H](Nc1ccc2c(c1)CNC2)c1cc(Cl)cc(C2CC2)c1`, for which the results for the IC50 in assay [1] and in assay [2] were greater than 100 µM and greater than 99.5 µM, respectively.

Take `O=C(Nc1cc2c(c(-c3c[nH]c(=O)c(F)c3)c1)CNC2)c1cc(F)cc2[nH]ncc12`: the IC50 in assay [1] is 38.6 µM and 68.6 µM; in assay [2], 68.4 µM.

For `Cn1cc(C(=O)Nc2cccc(CN)c2)c(-c2cnccn2)n1`, the concentration for half-maximal inhibition (IC50) is greater than 100 µM in assay [1] and greater than 99.5 µM in assay [2].

In the case of `CNCCS(=O)(=O)N1CCC([C@H](NC(=O)OCc2ccccc2)C(=O)Nc2cccc(CN)c2)CC1`, the IC50 was greater than 100 µM in assay [1] and greater than 99.5 µM in assay [2].

`N#CC[C@H](N)c1cccc(NC(=O)c2cc(Cl)cc(NC(=O)OCc3ccccc3)c2)c1`: the IC50 in assay [1] was greater than 100 µM; in assay [2], greater than 99.5 µM.

`O=C(Nc1ccc2c(c1)CNC2)c1cc(O)nc(C2CC2)c1`: the results for the IC50 in assay [1] and in assay [2] were greater than 100 µM and greater than 99.5 µM, respectively.

As for `NCc1cccc(NC(=O)c2cc(Cl)ccc2Oc2cccc(Cl)c2)c1`, the IC50 is greater than 100 µM in assay [1] and greater than 99.5 µM in assay [2].

Consider `C[C@H](NC(=O)c1cccc2c1CC(=O)N2)c1nnc2n1CCCC2`, for which the IC50 was greater than 100 µM in assay [1] and greater than 99.5 µM in assay [2].

Regarding `c1ccc(-c2[nH]c3ccccc3c2CN2CCC(c3cscn3)CC2)cc1`, the results for the IC50 in assay [1] and in assay [2] were greater than 100 µM and greater than 99.5 µM, respectively.

Regarding `COc1ccc([C@@H]2C[C@H]2NC(=O)c2cccc3c2CC(=O)N3)cc1`, the IC50 was greater than 100 µM in assay [1] and greater than 99.5 µM in assay [2].

Regarding `O=C(O)[C@H]1C[C@H](n2ccc(Cc3c[nH]c4ccc(Cl)cc34)n2)C1`, the IC50 is greater than 100 µM in assay [1] and greater than 99.5 µM in assay [2].

`COc1cccc(-c2nc3c(C(=O)Nc4ccc5c(c4)CNC5)cc(F)cc3[nH]2)c1`: the IC50 is greater than 100 µM in assay [1]; 8.12 µM and 5.22 µM in assay [2].

With `NCc1cccc(NC(=O)c2cc(Cl)ccc2-n2cncn2)c1`, the figures for the IC50 in assay [1] and in assay [2] were greater than 100 µM and greater than 99.5 µM, respectively.

For the compound `NCc1ccc(NS(=O)(=O)c2ccc(Oc3ccccc3Cl)cc2)cc1`, the IC50 in assay [1] is greater than 100 µM; in assay [2], greater than 99.5 µM.

Regarding `O=C(Nc1ccc2c(c1)CNC2)c1ccc(F)c2[nH]ncc12`, the figures for the IC50 in assay [1] and in assay [2] were greater than 100 µM and 69.7 µM, respectively.

Regarding `O=C(Nc1cc(-c2cccnc2)ccn1)c1cnn2c1CCC2`, the figures for the half-inhibitory concentration (IC50) in assay [1] and in assay [2] were greater than 100 µM and greater than 99.5 µM, respectively.

For `Cc1c(C(=O)Nc2cc(C(=O)N3CC[C@H](C(N)=O)C3)ccn2)cc(C2CC2)n1C`, the IC50 was greater than 100 µM in assay [1] and greater than 99.5 µM in assay [2].

Take `CCCn1cc2c(C(=O)Nc3ccc4c(c3)CNC4)cc(Cl)cc2n1`: the IC50 in assay [1] was greater than 100 µM; in assay [2] it was greater than 99.5 µM.

On to `N[C@H]1CCN(c2ccc(NC(=O)c3cc(Cl)cc(NC(=O)OCc4ccccc4)c3)cc2)C1`, for which the IC50 is greater than 100 µM in assay [1] and 35.4 µM in assay [2].

On to `Cc1cc(C(=O)Nc2cccc(CN)c2)n2nc(C(F)(F)F)cc2n1`, for which the IC50 was greater than 100 µM in assay [1] and 86.7 µM in assay [2].

For the compound `Cn1cncc1COc1cccc([C@H](NC(=O)OCc2ccccc2)C(=O)Nc2cccc(CN)c2)c1`, the IC50 in assay [1] is greater than 100 µM; in assay [2] it was 66 µM.

Consider `N#Cc1cc(C(=O)Nc2ccc3c(c2)CNC3)cc(C(F)(F)F)c1`, for which the IC50 in assay [1] was greater than 100 µM; in assay [2], greater than 99.5 µM.

On to `O=C(Nc1ccc2c(c1)CNC2)c1cc2ccccc2[nH]1`, for which the IC50 was greater than 100 µM in assay [1] and greater than 99.5 µM in assay [2].

Consider `COC(=O)c1ccc2[nH]cc(Cc3ccc(-c4nnn[nH]4)cc3)c2c1`, for which the IC50 was 72.4 µM in assay [1] and greater than 99.5 µM in assay [2].

For the compound `O=C(Nc1cc(Cl)cc([C@H]2[C@H](CO)[C@@H]2c2cccc(-c3nn[nH]n3)c2)c1)OCc1ccccc1`, the IC50 in assay [1] was 11.3 µM and 13.5 µM; in assay [2] it was 25.2 µM.

Regarding `c1coc(CSCc2nc(-c3nc[nH]n3)no2)c1`, the values for the IC50 in assay [1] and in assay [2] were greater than 100 µM and greater than 99.5 µM, respectively.
